From patent US9273057B2 (Bristol-Myers Squibb Company, priority 2012, dated 2016) come the findings set out here.

pIC50: −log10 of the molar value. Where a name gives a salt, the structure may show the parent alone.

Chain of CK2A1 (CK2α/β) (P68400 whole entry, species assumed): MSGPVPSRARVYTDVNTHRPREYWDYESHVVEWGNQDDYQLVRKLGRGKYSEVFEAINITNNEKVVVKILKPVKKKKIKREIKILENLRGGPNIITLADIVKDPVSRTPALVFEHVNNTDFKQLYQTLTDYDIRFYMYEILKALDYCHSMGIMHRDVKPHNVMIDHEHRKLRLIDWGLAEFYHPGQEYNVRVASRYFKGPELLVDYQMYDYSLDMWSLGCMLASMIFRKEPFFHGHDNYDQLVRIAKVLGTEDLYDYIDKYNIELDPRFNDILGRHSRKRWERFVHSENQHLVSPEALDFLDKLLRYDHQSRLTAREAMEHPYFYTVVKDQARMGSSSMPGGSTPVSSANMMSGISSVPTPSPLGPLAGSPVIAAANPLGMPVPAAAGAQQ
Chain of CK2A1 (CK2α/β) (P67870 whole entry partner, species assumed): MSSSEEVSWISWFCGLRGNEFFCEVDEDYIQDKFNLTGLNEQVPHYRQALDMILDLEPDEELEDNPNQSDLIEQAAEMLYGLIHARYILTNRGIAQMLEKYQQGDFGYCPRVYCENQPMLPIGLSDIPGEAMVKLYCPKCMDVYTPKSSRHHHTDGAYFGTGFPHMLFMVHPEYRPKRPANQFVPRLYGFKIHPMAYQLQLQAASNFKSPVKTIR

This experiment concerns the target CK2A1 (CK2α/β) (Homo sapiens, UniProt P68400). The experiment is described as follows: CK2 kinase assay, CK2A1 (CK2α/β). The format is biochemical. The following applies: Table A; read-out: CK2A1 (CK2α/β) (IC50).
`CC1(O)CCN(CC(O)c2cc(C#N)cc(Nc3nc(NC4CC4)c4ncc(C#N)n4n3)c2Cl)CC1` (centres unmarked) [Example 690, 2-((2-chloro-5-cyano-3-(1-hydroxy-2-(4-hydroxy-4-methylpiperidin-1-yl)ethyl)phenyl)amino)-4-(cyclopropylamino)imidazo[2,1-f][1,2,4]triazine-7-carbonitrile]: the pIC50 is 8.47. Then `CN1CCN(c2cc(C#N)cc(Nc3nc(NC4CC4)c4ncc(C#N)n4n3)c2Cl)CC1CO` (racemic) [Example 698, (+/−)-2-({2-chloro-5-cyano-3-[3-(hydroxymethyl)-4-methylpiperazin-1-yl]phenyl}amino)-4-(cyclopropylamino)imidazo[2,1-f][1,2,4]triazine-7-carbonitrile], with 8.87; and `N#Cc1cc(CN2CCNC(=O)C2)c(Cl)c(Nc2nc(NC3CC3)c3ncc(C#N)n3n2)c1` [Example 666, 2-((2-chloro-5-cyano-3-((3-oxopiperazin-1-yl)methyl)phenyl)amino)-4-(cyclopropylamino)imidazo[2,1-f][1,2,4]triazine-7-carbonitrile], with 9.52. As for `CCNc1nc(-n2cc([C@H]3C[C@@H]3CN(C)C)c3ccc(C#N)cc32)nn2c(C#N)cnc12` (single isomer, unassigned) [Example 774], the figure is 8.39; as for `CCNc1nc(Nc2cc(C#N)cc(N3CC[C@@H](NC(=O)OC)[C@H](OC(=O)C[C@H]4CC[C@H](N)CC4)C3)c2Cl)nn2c(C#N)cnc12` [Example 820, (3R,4R)-1-(2-chloro-5-cyano-3-((7-cyano-4-(ethylamino)imidazo[2,1-f][1,2,4]triazin-2-yl)amino)phenyl)-4-((methoxycarbonyl)amino)piperidin-3-yl 2-((1r,4R)-4-aminocyclohexyl)acetate hydrochloride], 8.22; as for `CC(C)(O)C1CCN(C2CN(c3cc(C(F)F)cc(Nc4nc(NC5CC5)c5ncc(C#N)n5n4)c3Cl)C2)CC1` [Example 259, 2-((2-chloro-5-(difluoromethyl)-3-(3-(4-(1-hydroxy-1-methylethyl)-1-piperidinyl)-1-azetidinyl)phenyl)amino)-4-(cyclopropylamino)imidazo[2,1-f][1,2,4]triazine-7-carbonitrile], 8.89. Then `CC(C)(O)c1cc(C#N)cc(Nc2nc(NC3CC3)c3ncc(C#N)n3n2)c1Cl` [Example 676, 2-((2-chloro-5-cyano-3-(2-hydroxypropan-2-yl)phenyl)amino)-4-(cyclopropylamino)imidazo[2,1-f][1,2,4]triazine-7-carbonitrile], with 9.39.

Consider `CC(C(N)=O)N1CCC(c2cc(C#N)cc(Nc3nc(NC4CC4)c4ncc(C#N)n4n3)c2Cl)CC1` (racemic) [Example 639, (+/−)-2-(4-(2-chloro-5-cyano-3-((7-cyano-4-(cyclopropylamino)imidazo[2,1-f][1,2,4]triazin-2-yl)amino)phenyl)piperidin-yl)propanamide], for which the pIC50 is 8.89. As for `CCNc1nc(Nc2cc(C(N)=O)cc(N3CC[C@H](NC(=O)OC)[C@@H](O)C3)c2Cl)nn2c(C#N)cnc12` (racemic) [Example 389, (+/−)-methyl ((3R,4R)-1-(5-carbamoyl-2-chloro-3-((7-cyano-4-(ethylamino)imidazo[2,1-f][1,2,4]triazin-2-yl)amino)phenyl)-3-hydroxypiperidin-4-yl)carbamate], the figure is 8.47. Then `N#Cc1cc(Nc2nc(NC3CC3)c3ncc(C#N)n3n2)c(Cl)c(N2CCC3C(CCN3C3COC3)C2)c1` (centres unmarked) [Example 444, 2-((2-chloro-5-cyano-3-(1-(oxetan-3-yl)hexahydro-1H-pyrrolo[3,2-c]pyridin-5(6H)-yl)phenyl)amino)-4-(cyclopropylamino)imidazo[2,1-f][1,2,4]triazine-7-carbonitrile], with 9.12; and `N#Cc1cnc2c(NC3CC3)nc(Nc3cc(C(F)F)cc(N4CC(NCC(O)CO)C4)c3Cl)nn12` (racemic) [Example 261, (+/−) 2-((2-chloro-5-(difluoromethyl)-3-(3-((2,3-dihydroxypropyl)amino)-1-azetidinyl)phenyl)amino)-4-(cyclopropylamino)imidazo[2,1-f][1,2,4]triazine-7-carbonitrile], with 8.61. In the case of `COC[C@H](O)CNC1CCN(c2cc(C#N)cc(Nc3nc(NC4CC4)c4ncc(C#N)n4n3)c2Cl)CC1` [Example 145, 2-((2-chloro-5-cyano-3-(4-(((2R)-2-hydroxy-3-methoxypropyl)amino)-1-piperidinyl)phenyl)amino)-4-(cyclopropylamino)imidazo [2,1-f][1,2,4]triazine-7-carbonitrile], the pIC50 was 8.26. Then `COC(=O)NN1CCN(c2cc(C#N)cc(Nc3nc(NC4CC4)c4ncc(C#N)n4n3)c2Cl)CC1` [Example 790, methyl (4-(2-chloro-5-cyano-3-((7-cyano-4-(cyclopropylamino)imidazo[2,1-f][1,2,4]triazin-2-yl)amino)phenyl)piperazin-1-yl)carbamate], with 8.82. Then `CC(c1cc(C#N)cc(Nc2nc(NC3CC3)c3ncc(C#N)n3n2)c1Cl)N1CCN(S(C)(=O)=O)CC1` (racemic) [Example 678], with 8.73; and `CCNc1nc(Nc2cc(C#N)cc(N3CCN(CC4(C)COC4)CC3)c2Cl)nn2c(C#N)cnc12` [Example 603, 2-[(2-chloro-5-cyano-3-{4-[(3-methyloxetan-3-yl)methyl]piperazin-1-yl}phenyl)amino]-4-(ethylamino)imidazo[2,1-f] [1,2,4]triazine-7-carbonitrile], with 8.55. As for `CN1CCN(C2CN(c3cc(C(F)F)cc(Nc4nc(NC5CC5)c5ncc(C#N)n5n4)c3Cl)C2)CC1` [Example 278, 2-((2-chloro-5-(difluoromethyl)-3-(3-(4-methyl-1-piperazinyl)-1-azetidinyl)phenyl)amino)-4-(cyclopropylamino)imidazo[2,1-f][1,2,4]triazine-7-carbonitrile], the figure is 9.07. Turning to `CCN1CCN(c2cc(C#N)cc(Nc3nc(NC4CC4)c4ncc(C#N)n4n3)c2Cl)C(=O)C1` [Example 636, 2-((2-chloro-5-cyano-3-(4-ethyl-2-oxopiperazin-1-yl)phenyl)amino)-4-(cyclopropylamino)imidazo[2,1-f][1,2,4]triazine-7-carbonitrile], the pIC50 was 9.00. Then `CCNc1nc(Nc2cc(C#N)cc(N3CCN(C4CCOC4)CC3)c2Cl)nn2c(C#N)cnc12` (racemic) [Example 103, (+/−) 2-((2-chloro-5-cyano-3-(4-(tetrahydro-3-furanyl)-1-piperazinyl)phenyl)amino)-4-(ethylamino)imidazo [2,1-f][1,2,4]triazine-7-carbonitrile], with 9.08; and `CS(=O)(=O)N1CCN(c2cc(C#N)cc(Nc3nc(NC4CC4)c4ncc(C#N)n4n3)c2Cl)CC1` [Example 4, 2-((2-chloro-5-cyano-3-(4-(methylsulfonyl)-1-piperazinyl)phenyl)amino)-4-(cyclopropylamino)imidazo [2,1-f][1,2,4]triazine-7-carbonitrile], with 9.19; and `N#Cc1cc(Nc2nc(NC3CC3)c3ncc(C#N)n3n2)c(Cl)c(N2CCN(C3CN(C(=O)C(F)F)C3)CC2)c1` [Example 491, 2-[(2-chloro-5-cyano-3-{4-[1-(2,2-difluoroacetyl)azetidin-3-yl]piperazin-1-yl}phenyl)amino]-4-(cyclopropylamino)imidazo[2,1-f][1,2,4]triazine-7-carbonitrile], with 8.88.
